Test results taken from patent US20160002204A1 (Board of Regents, The University of Texas System, priority 2014, published 2016).
Several values for one entry are separate records, joined by “and”; a condition that tells them apart may be missing. Equal values may be shown once.

How the values were obtained:
[1] = target: T1, GLS1 (purified recombinant human GAC) (Homo sapiens, UniProt O94925); experiment: GLS1 enzymatic activity assay (dual-coupled, Amplex UltraRed/resorufin); assay type: biochemical
T1 sequence (O94925 55-598 isoform O94925-3 limits assumed): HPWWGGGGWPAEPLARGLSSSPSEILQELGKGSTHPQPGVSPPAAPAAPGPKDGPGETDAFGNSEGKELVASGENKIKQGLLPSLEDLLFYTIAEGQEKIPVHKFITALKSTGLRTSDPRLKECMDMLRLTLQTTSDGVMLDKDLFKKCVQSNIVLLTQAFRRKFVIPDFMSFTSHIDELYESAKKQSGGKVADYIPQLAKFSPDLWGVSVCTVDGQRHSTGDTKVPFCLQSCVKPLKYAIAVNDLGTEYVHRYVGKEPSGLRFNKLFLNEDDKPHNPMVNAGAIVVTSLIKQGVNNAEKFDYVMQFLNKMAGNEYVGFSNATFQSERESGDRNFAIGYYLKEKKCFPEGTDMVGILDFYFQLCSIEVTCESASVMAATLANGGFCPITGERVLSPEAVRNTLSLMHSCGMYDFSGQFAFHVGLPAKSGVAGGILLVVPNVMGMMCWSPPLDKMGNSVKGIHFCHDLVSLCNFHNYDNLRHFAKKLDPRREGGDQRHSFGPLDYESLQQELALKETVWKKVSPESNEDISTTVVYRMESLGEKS
Procedure, shortened: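 Recombinant human GAC (2 nM) preincubated with 50 mM potassium phosphate, then inhibitor (10 min each, RT); 1 mM glutamine, pH 7.4 Hepes buffer, 1% DMSO. Glutamate coupled via glutamate oxidase/HRP to resorufin (Ex 530/Em 590), kinetic or 20-min endpoint; IC50 by four-parameter logistic fit.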

[2] = system: A549 cells; experiment: A549 proliferation (viability) assay, Cell Titer Fluor, 72 hours; assay type: cell-based; conditions: Homo sapiens
Procedure, shortened: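 A549 cells in RPMI 1640 with 10% dialyzed FBS were seeded at 1000 cells/well, grown 24 h, then exposed to compound (0.5% DMSO final) for 72 h at 37 °C, 5% CO2. Viability was read by Cell Titer Fluor fluorescence; EC50 from four-parameter logistic fit.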

Row | Compound | IC50 [1] | EC50 [2]
1 | O=C(Cc1ccccc1)Nc1ccc(CCCCn2ccc(NC(=O)Oc3ccccc3)nc2=O)nn1 [Example 97, phenyl N-(2-oxo-1-{4-[6-(2-phenylacetamido)pyridazin-3-yl]butyl}-1,2-dihydropyrimidin-4-yl)carbamate] | 100 to 500 nM | > 5000 nM
2 | CC(C)COC(=O)Nc1ccn(CCCCc2ccc(NC(=O)Cc3ccccc3)nn2)c(=O)n1 [Example 98, 2-methylpropyl N-(2-oxo-1-{4-[6-(2-phenylacetamido)pyridazin-3-yl]butyl}-1,2-dihydropyrimidin-4-yl)carbamate] | < 100 nM | 100 to 500 nM
3 | O=C(Cc1ccccc1)Nc1ccc(CCCCn2ccc(NC(=O)Cc3cccc(OC(F)(F)F)c3)nc2=O)nn1 [Example 99, N-{6-[4-(2-oxo-4-{2-[3-(trifluoromethoxy)phenyl]acetamido}-1,2-dihydropyrimidin-1-yl)butyl]pyridazin-3-yl}-2-phenylacetamide] | < 100 nM | < 100 nM
4 | O=C(Cc1ccccc1)Nc1ccc(CCCCn2ccc(NC(=O)[C@H](O)c3ccccc3)nc2=O)nn1 [Example 100, (2R)-2-hydroxy-N-(2-oxo-1-{4-[6-(2-phenylacetamido)pyridazin-3-yl]butyl}-1,2-dihydropyrimidin-4-yl)-2-phenylacetamide] | < 100 nM | 500 to 5000 nM
5 | O=C(Cc1cccc(OC(F)(F)F)c1)Nc1ccc(CCCCn2ccc(NC(=O)[C@H](O)c3ccccc3)nc2=O)nn1 [Example 101, (2R)-2-hydroxy-N-{2-oxo-1-[4-(6-{2-[3-(trifluoro-methoxy)phenyl]acetamido}pyridazin-3-yl)butyl]-1,2-dihydropyrimidin-4-yl}-2-phenylacetamide] | < 100 nM | 100 to 500 nM
6 | CC(C)OC(=O)Nc1ccn(CCCCc2ccc(NC(=O)Cc3cccc(OC(F)(F)F)c3)nn2)c(=O)n1 [Example 102, propan-2-yl N-{2-oxo-1-[4-(6-{2-[3-(trifluoromethoxy)phenyl]acetamido}pyridazin-3-yl)butyl]-1,2-dihydropyrimidin-4-yl}carbamate] | < 100 nM | 100 to 500 nM
7 | O=C(Cc1cccc(OC(F)(F)F)c1)Nc1ccc(CCCCn2ccc(NC(=O)OC3CCCCC3)nc2=O)nn1 [Example 103, cyclohexyl N-{2-oxo-1-[4-(6-{2-[3-(trifluoromethoxy)phenyl]acetamido}pyridazin-3-yl)butyl]-1,2-dihydropyrimidin-4-yl}carbamate] | < 100 nM | < 100 nM
8 | CC(C)COC(=O)Nc1ccn(CCCCc2ccc(NC(=O)Cc3cccc(OC(F)(F)F)c3)nn2)c(=O)n1 [Example 104, 2-methylpropyl N-{2-oxo-1-[4-(6-{2-[3-(trifluoro-methoxy)phenyl]acetamido}pyridazin-3-yl)butyl]-1,2-dihydropyrimidin-4-yl}carbamate] | < 100 nM | < 100 nM
9 | O=C(Cc1cccc(OC(F)(F)F)c1)Nc1ccc(CCCCn2ccc(NC(=O)OC3CCOCC3)nc2=O)nn1 [Example 105, oxan-4-yl N-{2-oxo-1-[4-(6-{2-[3-(trifluoromethoxy)phenyl]acetamido}pyridazin-3-yl)butyl]-1,2-dihydropyrimidin-4-yl}carbamate] | < 100 nM | 100 to 500 nM
10 | CC(C)NC(=O)Nc1ccn(CCCCc2ccc(NC(=O)Cc3cccc(OC(F)(F)F)c3)nn2)c(=O)n1 [Example 106, N-{6-[4-(2-oxo-4-{[(propan-2-yl)carbamoyl]amino}-1,2-dihydropyrimidin-1-yl)butyl]pyridazin-3-yl}-2-[3-(trifluoromethoxy)phenyl]acetamide] | 100 to 500 nM | 500 to 5000 nM
11 | O=C(Cc1cccc(OC(F)(F)F)c1)Nc1ccc(CCCCn2ccc(NC(=O)NC3CCCCC3)nc2=O)nn1 [Example 107, N-[6-(4-{4-[(cyclohexylcarbamoyl)amino]-2-oxo-1,2-dihydropyrimidin-1-yl}butyl)pyridazin-3-yl]-2-[3-(trifluoromethoxy)phenyl]acetamide] | < 100 nM | 500 to 5000 nM
12 | O=C(Cc1cccc(OC(F)(F)F)c1)Nc1ccc(CCCCn2ccc(NC(=O)CC3CCCCC3)nc2=O)nn1 [Example 108, N-(6-{4-[4-(2-cyclohexylacetamido)-2-oxo-1,2-dihydropyrimidin-1-yl]butyl}pyridazin-3-yl)-2-[3-(trifluoromethoxy)phenyl]acetamide] | < 100 nM | < 100 nM
13 | O=C(Cc1cccc(OC(F)(F)F)c1)Nc1ccc(CCCCn2ccc(NC(=O)CCN3CCCC3)nc2=O)nn1 [Example 109, N-{2-oxo-1-[4-(6-{2-[3-(trifluoromethoxy)phenyl]acetamido}pyridazin-3-yl)butyl]-1,2-dihydropyrimidin-4-yl}-3-(pyrrolidin-1-yl)propanamide] | 100 to 500 nM | 500 to 5000 nM
14 | CS(=O)(=O)CCC(=O)Nc1ccn(CCCCc2ccc(NC(=O)Cc3cccc(OC(F)(F)F)c3)nn2)c(=O)n1 [Example 110, 3-methanesulfonyl-N-{2-oxo-1-[4-(6-{2-[3-(trifluoro-methoxy)phenyl]acetamido}pyridazin-3-yl)butyl]-1,2-dihydropyrimidin-4-yl}propanamide] | < 100 nM | 100 to 500 nM
15 | CC(C)CC(=O)Nc1ccn(CCCCc2ccc(NC(=O)Cc3cccc(OC(F)(F)F)c3)nn2)c(=O)n1 [Example 111, 3-methyl-N-{2-oxo-1-[4-(6-{2-[3-(trifluoromethoxy)phenyl]acetamido}pyridazin-3-yl)butyl]-1,2-dihydropyrimidin-4-yl}butanamide] | < 100 nM | < 100 nM
16 | COCCOC(=O)Nc1ccn(CCCCc2ccc(NC(=O)Cc3cccc(OC(F)(F)F)c3)nn2)c(=O)n1 [Example 112, 2-methoxyethyl N-{2-oxo-1-[4-(6-{2-[3-(trifluoro-methoxy)phenyl]acetamido}pyridazin-3-yl)butyl]-1,2-dihydropyrimidin-4-yl}carbamate] | < 100 nM | 100 to 500 nM
17 | O=C(Cc1cccc(OC(F)(F)F)c1)Nc1ccc(CCCCn2ccc(NC(=O)CO)nc2=O)nn1 [Example 113, 2-hydroxy-N-{2-oxo-1-[4-(6-{2-[3-(trifluoromethoxy)phenyl]acetamido}pyridazin-3-yl)butyl]-1,2-dihydropyrimidin-4-yl}acetamide] | < 100 nM | 500 to 5000 nM
18 | Cn1cc(CC(=O)Nc2ccn(CCCCc3ccc(NC(=O)Cc4cccc(OC(F)(F)F)c4)nn3)c(=O)n2)cn1 [Example 114, N-[6-(4-{4-[2-(1-methyl-1H-pyrazol-4-yl)acetamido]-2-oxo-1,2-dihydropyrimidin-1-yl}butyl)pyridazin-3-yl]-2-[3-(trifluoromethoxy)phenyl]acetamide] | < 100 nM | < 100 nM
19 | O=C(Cc1cccc(OC(F)(F)F)c1)Nc1ccc(CCCCn2ccc(NC(=O)Cc3cccnc3)nc2=O)nn1 [Example 116, N-[6-(4-{2-oxo-4-[2-(pyridin-3-yl)acetamido]-1,2-dihydropyrimidin-1-yl}butyl)pyridazin-3-yl]-2-[3-(trifluoromethoxy)phenyl]acetamide] | < 100 nM | < 100 nM
20 | O=C(Cc1cccc(OC(F)(F)F)c1)Nc1ccc(CCCCn2ccc(NC(=O)CCO)nc2=O)nn1 [Example 117, 3-hydroxy-N-{2-oxo-1-[4-(6-{2-[3-(trifluoromethoxy)phenyl]acetamido}pyridazin-3-yl)butyl]-1,2-dihydropyrimidin-4-yl}propanamide] | < 100 nM | 500 to 5000 nM
21 | O=C(Cc1cccc(OC(F)(F)F)c1)Nc1ccc(CCCCn2ccc(NC(=O)Cc3ccccn3)nc2=O)nn1 [Example 118, N-[6-(4-{2-oxo-4-[2-(pyridin-2-yl)acetamido]-1,2-dihydropyrimidin-1-yl}butyl)pyridazin-3-yl]-2-[3-(trifluoromethoxy)phenyl]acetamide] | < 100 nM | < 100 nM
22 | O=C(Nc1ccn(CCCCc2nnc(C(=O)NCCO)s2)c(=O)n1)OCc1ccccc1 [Example 119, benzyl N-[1-(4-{5-[(2-hydroxyethyl)carbamoyl]-1,3,4-thiadiazol-2-yl}butyl)-2-oxo-1,2-dihydropyrimidin-4-yl]carbamate] | 500 to 5000 nM | > 5000 nM
23 | O=C(Nc1ccn(CCCCc2nnc(C(=O)NCc3ccccn3)s2)c(=O)n1)OCc1ccccc1 [Example 120, benzyl N-[2-oxo-1-(4-{5-[(pyridin-2-ylmethyl)carbamoyl]-1,3,4-thiadiazol-2-yl}butyl)-1,2-dihydropyrimidin-4-yl]carbamate] | 500 to 5000 nM and 100 to 500 nM | 500 to 5000 nM
24 | COCCNC(=O)c1nnc(CCCCn2ccc(NC(=O)OCc3ccccc3)nc2=O)s1 [Example 121, benzyl N-[1-(4-{5-[(2-methoxyethyl)carbamoyl]-1,3,4-thiadiazol-2-yl}butyl)-2-oxo-1,2-dihydropyrimidin-4-yl]carbamate] | 500 to 5000 nM | > 5000 nM
25 | O=C(Nc1ccn(CCCCc2nnc(C(=O)NCc3ccccc3)s2)c(=O)n1)OCc1ccccc1 [Example 122, benzyl N-(1-{4-[5-(benzylcarbamoyl)-1,3,4-thiadiazol-2-yl]butyl}-2-oxo-1,2-dihydropyrimidin-4-yl)carbamate] | 100 to 500 nM | 100 to 500 nM
